According to patent publication US20250084056A1, “SUBSTITUTED OXOISOINDOLINYL PIPERIDINE-2,6-DIONE COMPOUNDS” (BRISTOL-MYERS SQUIBB COMPANY, priority 2023, published 2025):

What was measured:
Assay type in all cases: cell-based
GSPT1 = GSPT1 (Homo sapiens, UniProt P15170+Q96SW2); experiment: GSPT1 Cellular Degradation Assay (DF15-GSPT1-ePL); parameters: expressed in transfected cells; details: DF15-GSPT1-ePL cells, 20 hours
Method in brief: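 DC50 and Dmax were derived from chemiluminescence, with 75% response set by the reference compound at […]. Readout was ePL enzyme-fragment complementation in a DF15 line expressing chimeric GSPT1. Cells were exposed to compound for 20 h at 37 °C in RPMI 1640 with 10% FBS, cooled 30 min, then lysed with substrate for 60 min.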

Phospho-Rb (Ser807/811) = experiment: Phospho-Retinoblastoma (pRB) Cellular Assay; details: NIH OVCAR3 cells, 24 hours; for IC50: concentration giving 50% response; for Emax: read-out: pRB Ymax
Method in brief: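 Phospho-Rb (Ser807/811) kit read-out on EnVision after lysis (≥4 h, room temperature, dark) of OVCAR3 cells exposed to compound dilutions for 24 h. IC50 and maximum response Ymax are relative to a 10 μM reference compound defining 100%.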

Cyclin E1 = Cyclin E1 (Homo sapiens, UniProt P24864+Q96SW2); experiment: Cyclin E1 Cellular Degradation Assay (MSD); parameters: endogenous in cells; host or cells: OVCAR3; details: for Ratio of GSPT1 DC50/Cyclin E1 DC50: selectivity for degradation of Cyclin E1 over GSPT1
Chain of Cyclin E1 (P24864 whole entry): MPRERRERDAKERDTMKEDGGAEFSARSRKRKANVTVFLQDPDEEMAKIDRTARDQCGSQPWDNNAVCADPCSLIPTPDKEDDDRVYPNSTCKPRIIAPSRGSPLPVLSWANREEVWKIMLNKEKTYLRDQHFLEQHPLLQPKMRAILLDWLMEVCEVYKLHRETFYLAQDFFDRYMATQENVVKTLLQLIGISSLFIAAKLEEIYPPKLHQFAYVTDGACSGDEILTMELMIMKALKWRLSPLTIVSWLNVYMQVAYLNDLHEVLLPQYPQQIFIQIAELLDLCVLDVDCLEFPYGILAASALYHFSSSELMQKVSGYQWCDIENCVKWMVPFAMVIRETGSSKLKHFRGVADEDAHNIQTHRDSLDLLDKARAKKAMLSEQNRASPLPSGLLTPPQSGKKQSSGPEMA
Chain of Cyclin E1 (Q96SW2 whole entry): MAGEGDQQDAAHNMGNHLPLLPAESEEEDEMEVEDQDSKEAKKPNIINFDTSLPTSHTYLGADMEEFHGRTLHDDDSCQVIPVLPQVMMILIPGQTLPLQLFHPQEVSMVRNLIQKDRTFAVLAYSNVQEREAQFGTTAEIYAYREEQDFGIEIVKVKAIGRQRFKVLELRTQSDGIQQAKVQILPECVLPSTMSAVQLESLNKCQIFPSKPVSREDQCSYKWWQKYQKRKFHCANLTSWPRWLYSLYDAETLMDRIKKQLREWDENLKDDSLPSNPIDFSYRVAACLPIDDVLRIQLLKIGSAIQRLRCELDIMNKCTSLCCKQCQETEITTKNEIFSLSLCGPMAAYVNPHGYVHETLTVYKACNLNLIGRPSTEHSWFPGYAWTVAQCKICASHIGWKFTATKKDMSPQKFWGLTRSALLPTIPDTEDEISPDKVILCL
Chain of Cyclin E1 (Q16531 whole entry partner): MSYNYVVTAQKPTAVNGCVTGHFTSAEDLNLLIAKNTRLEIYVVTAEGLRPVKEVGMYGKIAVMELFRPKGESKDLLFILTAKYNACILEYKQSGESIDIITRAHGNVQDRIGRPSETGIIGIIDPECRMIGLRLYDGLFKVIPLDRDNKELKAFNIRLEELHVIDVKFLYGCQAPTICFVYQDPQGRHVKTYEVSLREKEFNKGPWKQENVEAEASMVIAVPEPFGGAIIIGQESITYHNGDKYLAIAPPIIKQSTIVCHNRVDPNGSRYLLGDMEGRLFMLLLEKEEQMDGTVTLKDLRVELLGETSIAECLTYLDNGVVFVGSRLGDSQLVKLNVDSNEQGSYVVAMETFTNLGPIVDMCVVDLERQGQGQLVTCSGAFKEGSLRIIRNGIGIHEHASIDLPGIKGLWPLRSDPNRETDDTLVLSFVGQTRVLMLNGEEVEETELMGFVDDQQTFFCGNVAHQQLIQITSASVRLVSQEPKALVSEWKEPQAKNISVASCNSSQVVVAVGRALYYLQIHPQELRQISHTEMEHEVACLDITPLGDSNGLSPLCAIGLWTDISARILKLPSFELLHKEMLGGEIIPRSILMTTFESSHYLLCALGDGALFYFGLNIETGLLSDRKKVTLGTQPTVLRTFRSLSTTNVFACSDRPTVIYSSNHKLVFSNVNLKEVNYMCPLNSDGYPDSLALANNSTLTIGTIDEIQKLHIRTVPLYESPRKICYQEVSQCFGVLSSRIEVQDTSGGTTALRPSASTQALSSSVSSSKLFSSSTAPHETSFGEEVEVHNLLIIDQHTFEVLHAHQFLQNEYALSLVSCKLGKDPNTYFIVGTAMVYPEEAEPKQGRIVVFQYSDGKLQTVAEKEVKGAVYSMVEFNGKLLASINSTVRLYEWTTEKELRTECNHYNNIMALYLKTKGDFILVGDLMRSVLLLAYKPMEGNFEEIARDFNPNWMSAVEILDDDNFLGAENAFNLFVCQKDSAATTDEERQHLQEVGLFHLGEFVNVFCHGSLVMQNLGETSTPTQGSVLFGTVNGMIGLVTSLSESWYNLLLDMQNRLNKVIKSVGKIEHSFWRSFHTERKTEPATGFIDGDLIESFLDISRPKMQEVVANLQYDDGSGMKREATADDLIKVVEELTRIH
Method in brief: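 Cyclin E1 remaining after 24 h compound exposure of OVCAR3 cells was quantified in lysates by electrochemiluminescent MSD sandwich assay. DC50 (50% response concentration) and Dmax (maximum response) were calculated, with 110% response set by a reference compound at […].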

[1] = Homo sapiens, OVCAR-3, maximum response, reference compound at 10 μM = 100%
[2] = Cyclin E1 cellular degradation, maximum degradation

Chain of GSPT1 (P15170 whole entry, the tested form may be a part): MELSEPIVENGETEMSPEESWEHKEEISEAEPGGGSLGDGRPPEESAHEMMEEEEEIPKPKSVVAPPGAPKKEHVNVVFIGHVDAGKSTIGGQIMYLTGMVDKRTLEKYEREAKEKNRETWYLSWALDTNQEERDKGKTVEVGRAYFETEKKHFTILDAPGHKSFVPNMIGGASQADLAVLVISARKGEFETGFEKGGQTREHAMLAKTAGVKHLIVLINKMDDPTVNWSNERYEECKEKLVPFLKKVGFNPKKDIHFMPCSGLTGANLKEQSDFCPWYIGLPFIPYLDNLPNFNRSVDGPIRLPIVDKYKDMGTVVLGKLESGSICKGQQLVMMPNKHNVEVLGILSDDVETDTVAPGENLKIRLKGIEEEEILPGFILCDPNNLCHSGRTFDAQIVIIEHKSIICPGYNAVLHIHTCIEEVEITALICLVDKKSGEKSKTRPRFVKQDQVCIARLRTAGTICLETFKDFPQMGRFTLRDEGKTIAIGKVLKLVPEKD
Chain of GSPT1 (Q96SW2 whole entry, the tested form may be a part): as the sequence (Q96SW2 whole entry) above
Chain of GSPT1 (Q16531 whole entry partner, the tested form may be a part): as the sequence (Q16531 whole entry partner) above

SMILES | DC50 (GSPT1) | Dmax (GSPT1) | IC50 (Phospho-Rb (Ser807/811); Homo sapiens, OVCAR-3) | Emax (Phospho-Rb (Ser807/811); [1]) | DC50 (Cyclin E1; Cyclin E1 cellular degradation) | Dmax (Cyclin E1; [2]) | Ratio of GSPT1 DC50/Cyclin E1 DC50 (Cyclin E1) | IC50 (Phospho-Rb (Ser807/811)) | GSPT1 Dmax (GSPT1) | pRB Ymax (Phospho-Rb (Ser807/811); maximum response, reference compound at 10 μM = 100%) | Cyclin E1 Dmax (Cyclin E1; [2])
COc1c(COC(=O)Nc2ccc(Oc3ccccc3Cl)cc2)ccc2c1C(=O)N(C1CCC(=O)NC1=O)C2 (stereo not shown) [Example 80, [2-(2,6-dioxopiperidin-3-yl)-4-methoxy-3-oxo-2,3-dihydro-1H-isoindol-5-yl]methyl N-[4-(2-chlorophenoxy)phenyl]carbamate] | > 14000 nM | 40% | 73 nM | 119% | 181 nM | 115% | >77 | – | – | – | –
COc1c(COC(=O)Nc2ccc(Oc3ccc(F)cc3C)cc2)ccc2c1C(=O)N(C1CCC(=O)NC1=O)C2 (stereo not shown) [Example 81, [2-(2,6-dioxopiperidin-3-yl)-4-methoxy-3-oxo-2,3-dihydro-1H-isoindol-5-yl]methyl N-[4-(4-fluoro-2-methylphenoxy)phenyl]carbamate] | > 14000 nM | 37% | 64 nM | 103% | 92 nM | 110% | >152 | – | – | – | –
COc1c(COC(=O)Nc2ccc(Oc3ccc(F)c(C)c3)cc2C)ccc2c1C(=O)N(C1CCC(=O)NC1=O)C2 (stereo not shown) [Example 82, [2-(2,6-dioxopiperidin-3-yl)-4-methoxy-3-oxo-2,3-dihydro-1H-isoindol-5-yl]methyl N-[4-(4-fluoro-3-methylphenoxy)-2-methylphenyl]carbamate] | > 14000 nM | 25% | 354 nM | 97% | 327 nM | 109% | >43 | – | – | – | –
COc1c(COC(=O)Nc2ccc(Oc3ccc(F)c(Cl)c3)cc2C)ccc2c1C(=O)N(C1CCC(=O)NC1=O)C2 (stereo not shown) [Example 83, [2-(2,6-dioxopiperidin-3-yl)-4-methoxy-3-oxo-2,3-dihydro-1H-isoindol-5-yl]methyl N-[4-(3-chloro-4-fluorophenoxy)-2-methylphenyl]carbamate] | > 14000 nM | 31% | 172 nM | 117% | 136 nM | 110% | >103 | – | – | – | –
COc1c(COC(=O)Nc2ccc(Oc3ccc(F)cc3)cc2)ccc2c1C(=O)N(C1CCC(=O)NC1=O)C2 (stereo not shown) [Example 84, [2-(2,6-dioxopiperidin-3-yl)-4-methoxy-3-oxo-2,3-dihydro-1H-isoindol-5-yl]methyl N-[4-(4-fluorophenoxy)phenyl]carbamate] | > 14000 nM | 22% | 254 nM | 95% | 94 nM | 108% | >149 | – | – | – | –
COc1c(COC(=O)Nc2ccc(Oc3ccccc3C(F)F)cc2)ccc2c1C(=O)N(C1CCC(=O)NC1=O)C2 (stereo not shown) [Example 85, [2-(2,6-dioxopiperidin-3-yl)-4-methoxy-3-oxo-2,3-dihydro-1H-isoindol-5-yl]methyl N-{4-[2-(difluoromethyl)phenoxy]phenyl}carbamate] | > 14000 nM | 35% | 117 nM | 98% | 181 nM | 105% | >77 | – | – | – | –
COc1c(COC(=O)Nc2ccc(Oc3ccccc3C(F)F)cc2F)ccc2c1C(=O)N(C1CCC(=O)NC1=O)C2 (stereo not shown) [Example 86, [2-(2,6-dioxopiperidin-3-yl)-4-methoxy-3-oxo-2,3-dihydro-1H-isoindol-5-yl]methyl N-{4-[2-(difluoromethyl)phenoxy]-2-fluorophenyl}carbamate] | > 14000 nM | 33% | 176 nM | 112% | 205 nM | 107% | >68 | – | – | – | –
COc1c(COC(=O)Nc2ccc(Oc3ccccc3C3CC3)cc2)ccc2c1C(=O)N(C1CCC(=O)NC1=O)C2 (stereo not shown) [Example 87, [2-(2,6-dioxopiperidin-3-yl)-4-methoxy-3-oxo-2,3-dihydro-1H-isoindol-5-yl]methyl N-[4-(2-cyclopropylphenoxy)phenyl]carbamate] | > 14000 nM | 39% | 272 nM | 98% | 414 nM | 100% | >34 | – | – | – | –
COc1cc(Oc2ccccc2C(F)F)ccc1NC(=O)OCc1ccc2c(c1OC)C(=O)N(C1CCC(=O)NC1=O)C2 (stereo not shown) [Example 88, [2-(2,6-dioxopiperidin-3-yl)-4-methoxy-3-oxo-2,3-dihydro-1H-isoindol-5-yl]methyl N-{4-[2-(difluoromethyl)phenoxy]-2-methoxyphenyl}carbamate] | > 14000 nM | 30% | 227 nM | 10% | 203 nM | 104% | >69 | – | – | – | –
COc1c(COC(=O)Nc2ccc(Oc3ccc(F)cc3C(F)F)cc2)ccc2c1C(=O)N(C1CCC(=O)NC1=O)C2 (stereo not shown) [Example 89, [2-(2,6-dioxopiperidin-3-yl)-4-methoxy-3-oxo-2,3-dihydro-1H-isoindol-5-yl]methyl N-{4-[2-(difluoromethyl)-4-fluorophenoxy]phenyl}carbamate] | > 14000 nM | 42% | 159 nM | 108% | 289 nM | 101% | >48 | – | – | – | –
COc1c(COC(=O)Nc2ccc(Oc3ccccc3C(F)(F)F)cc2Cl)ccc2c1C(=O)N(C1CCC(=O)NC1=O)C2 (stereo not shown) [Example 90, [2-(2,6-dioxopiperidin-3-yl)-4-methoxy-3-oxo-2,3-dihydro-1H-isoindol-5-yl]methyl N-{2-chloro-4-[2-(trifluoromethyl)phenoxy]phenyl}carbamate] | > 14000 nM | 10% | 479 nM | 103% | 200 nM | 100% | >70 | – | – | – | –
COc1c(COC(=O)Nc2ccc(Oc3ccc(Cl)c(F)c3)cc2F)ccc2c1C(=O)N(C1CCC(=O)NC1=O)C2 (stereo not shown) [Example 91, [2-(2,6-dioxopiperidin-3-yl)-4-methoxy-3-oxo-2,3-dihydro-1H-isoindol-5-yl]methyl N-[4-(4-chloro-3-fluorophenoxy)-2-fluorophenyl]carbamate] | > 14000 nM | 20% | 160 nM | 101% | 223 nM | 106% | >63 | – | – | – | –
COc1c(COC(=O)Nc2ccc(Oc3ccccc3C)cc2)ccc2c1C(=O)N(C1CCC(=O)NC1=O)C2 (stereo not shown) [Example 92, [2-(2,6-dioxopiperidin-3-yl)-4-methoxy-3-oxo-2,3-dihydro-1H-isoindol-5-yl]methyl N-{4-[2-(^2H3)methylphenoxy]phenyl}carbamate] | > 14000 nM | – | – | – | 170 nM | – | – | 34 nM | – | – | –
[2H]C([2H])([2H])c1ccccc1Oc1ccc(NC(=O)OCc2ccc3c(c2OC)C(=O)N(C2CCC(=O)NC2=O)C3)cc1 (stereo not shown) [Example 92, [2-(2,6-dioxopiperidin-3-yl)-4-methoxy-3-oxo-2,3-dihydro-1H-isoindol-5-yl]methyl N-{4-[2-(^2H3)methylphenoxy]phenyl}carbamate] | – | – | – | – | – | – | >82 | – | 23% | 112% | 114%
COc1cc(Oc2ccccc2)ccc1NC(=O)OCc1ccc2c(c1OC)C(=O)N(C1CCC(=O)NC1=O)C2 (stereo not shown) [Example 93, [2-(2,6-dioxopiperidin-3-yl)-4-methoxy-3-oxo-2,3-dihydro-1H-isoindol-5-yl]methyl N-(2-methoxy-4-phenoxyphenyl)carbamate] | > 14000 nM | 5% | 159 nM | 111% | 338 nM | 103% | >41 | – | – | – | –
COc1c(COC(=O)Nc2ccc(Oc3cc(F)c(F)cc3C)cc2F)ccc2c1C(=O)N(C1CCC(=O)NC1=O)C2 (stereo not shown) [Example 94, [2-(2,6-dioxopiperidin-3-yl)-4-methoxy-3-oxo-2,3-dihydro-1H-isoindol-5-yl]methyl N-[4-(4,5-difluoro-2-methylphenoxy)-2-fluorophenyl]carbamate] | > 14000 nM | 25% | 287 nM | 107% | 198 nM | 106% | >71 | – | – | – | –
COc1c(COC(=O)Nc2ccc(Oc3ccc(F)cc3C)cc2F)ccc2c1C(=O)N(C1CCC(=O)NC1=O)C2 (stereo not shown) [Example 95, [2-(2,6-dioxopiperidin-3-yl)-4-methoxy-3-oxo-2,3-dihydro-1H-isoindol-5-yl]methyl N-[2-fluoro-4-(4-fluoro-2-methylphenoxy)phenyl]carbamate] | > 14000 nM | 36% | 63 nM | 125% | 274 nM | 110% | >51 | – | – | – | –
